From PubChem BioAssay (NCI)
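Briefly, cells in 96-well plates were exposed to five compound concentrations for 48 h, and endpoints were estimated by linear interpolation. At the GI50, growth is halved. TGI marks complete inhibition of growth.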

Assays:
Assay in all cases: NCI anticancer screen, dose series, 48 h
786-0 renal = tested on: 786-0 renal
A498 renal = tested on: A498 renal
A549 NSCLC = tested on: A549 NSCLC
ACHN renal = tested on: ACHN renal
BT-549 breast = tested on: BT-549 breast
CAKI-1 renal = tested on: CAKI-1 renal
CCRF-CEM leukemia = tested on: CCRF-CEM leukemia
COLO 205 colon = tested on: COLO 205 colon
DU-145 prostate = tested on: DU-145 prostate
HCC-2998 colon = tested on: HCC-2998 colon
HCT-116 colon = tested on: HCT-116 colon
HCT-15 colon = tested on: HCT-15 colon
HL-60(TB) leukemia = tested on: HL-60(TB) leukemia
HOP-62 NSCLC = tested on: HOP-62 NSCLC
HOP-92 NSCLC = tested on: HOP-92 NSCLC
HS 578T breast = tested on: HS 578T breast
HT29 colon = tested on: HT29 colon
IGROV1 ovarian = tested on: IGROV1 ovarian
K-562 leukemia = tested on: K-562 leukemia
KM12 colon = tested on: KM12 colon
LOX IMVI melanoma = tested on: LOX IMVI melanoma
M14 melanoma = tested on: M14 melanoma
MALME-3M melanoma = tested on: MALME-3M melanoma
MCF7 breast = tested on: MCF7 breast
MDA-MB-231 breast = tested on: MDA-MB-231 breast
MDA-MB-435 = tested on: MDA-MB-435
MOLT-4 leukemia = tested on: MOLT-4 leukemia
NCI-H226 lung = tested on: NCI-H226 lung
NCI-H23 lung = tested on: NCI-H23 lung
NCI-H460 lung = tested on: NCI-H460 lung
NCI-H522 lung = tested on: NCI-H522 lung
NCI/ADR-RES ovarian = tested on: NCI/ADR-RES ovarian
OVCAR-3 ovarian = tested on: OVCAR-3 ovarian
OVCAR-4 ovarian = tested on: OVCAR-4 ovarian
OVCAR-5 ovarian = tested on: OVCAR-5 ovarian
OVCAR-8 ovarian = tested on: OVCAR-8 ovarian
PC-3 prostate = tested on: PC-3 prostate
RPMI-8226 leukemia = tested on: RPMI-8226 leukemia
RXF 393 renal = tested on: RXF 393 renal
SF-268 CNS = tested on: SF-268 CNS
SF-539 CNS = tested on: SF-539 CNS
SK-MEL-2 melanoma = tested on: SK-MEL-2 melanoma
SK-MEL-28 melanoma = tested on: SK-MEL-28 melanoma
SK-MEL-5 melanoma = tested on: SK-MEL-5 melanoma
SK-OV-3 ovarian = tested on: SK-OV-3 ovarian
SN12C renal = tested on: SN12C renal
SNB-19 CNS = tested on: SNB-19 CNS
SNB-75 CNS = tested on: SNB-75 CNS
SW-620 colon = tested on: SW-620 colon
T-47D breast = tested on: T-47D breast
TK-10 renal = tested on: TK-10 renal
U251 CNS = tested on: U251 CNS
UACC-257 melanoma = tested on: UACC-257 melanoma
UACC-62 melanoma = tested on: UACC-62 melanoma
UO-31 renal = tested on: UO-31 renal

O=c1c2ccc3cccc4c(=O)c5ccc6cccc1c6c5-c2c34
GI50 (786-0 renal): > 50 µM | TGI (786-0 renal): > 50 µM | GI50 (A498 renal): > 50 µM | TGI (A498 renal): > 50 µM | GI50 (A549 NSCLC): > 50 µM | TGI (A549 NSCLC): > 50 µM | GI50 (ACHN renal): > 50 µM | TGI (ACHN renal): > 50 µM | GI50 (BT-549 breast): > 50 µM | TGI (BT-549 breast): > 50 µM | GI50 (CAKI-1 renal): > 50 µM | TGI (CAKI-1 renal): > 50 µM | GI50 (CCRF-CEM leukemia): > 50 µM | TGI (CCRF-CEM leukemia): > 50 µM | GI50 (COLO 205 colon): > 50 µM | TGI (COLO 205 colon): > 50 µM | GI50 (DU-145 prostate): > 50 µM | TGI (DU-145 prostate): > 50 µM | GI50 (HCC-2998 colon): > 50 µM | TGI (HCC-2998 colon): > 50 µM | GI50 (HCT-116 colon): > 50 µM | TGI (HCT-116 colon): > 50 µM | GI50 (HCT-15 colon): > 50 µM | TGI (HCT-15 colon): > 50 µM | GI50 (HL-60(TB) leukemia): > 50 µM | TGI (HL-60(TB) leukemia): > 50 µM | GI50 (HOP-62 NSCLC): > 50 µM | TGI (HOP-62 NSCLC): > 50 µM | GI50 (HOP-92 NSCLC): > 50 µM | TGI (HOP-92 NSCLC): > 50 µM | GI50 (HS 578T breast): > 50 µM | TGI (HS 578T breast): > 50 µM | GI50 (HT29 colon): > 50 µM | TGI (HT29 colon): > 50 µM | GI50 (IGROV1 ovarian): > 50 µM | TGI (IGROV1 ovarian): > 50 µM | GI50 (K-562 leukemia): > 50 µM | TGI (K-562 leukemia): > 50 µM | GI50 (KM12 colon): > 50 µM | TGI (KM12 colon): > 50 µM | GI50 (LOX IMVI melanoma): > 50 µM | TGI (LOX IMVI melanoma): > 50 µM | GI50 (M14 melanoma): > 50 µM | TGI (M14 melanoma): > 50 µM | GI50 (MALME-3M melanoma): > 50 µM | TGI (MALME-3M melanoma): > 50 µM | GI50 (MCF7 breast): > 50 µM | TGI (MCF7 breast): > 50 µM | GI50 (MDA-MB-231 breast): > 50 µM | TGI (MDA-MB-231 breast): > 50 µM | GI50 (MDA-MB-435): > 50 µM | TGI (MDA-MB-435): > 50 µM | GI50 (MOLT-4 leukemia): > 50 µM | TGI (MOLT-4 leukemia): > 50 µM | GI50 (NCI-H226 lung): > 50 µM | TGI (NCI-H226 lung): > 50 µM | GI50 (NCI-H23 lung): > 50 µM | TGI (NCI-H23 lung): > 50 µM | GI50 (NCI-H460 lung): > 50 µM | TGI (NCI-H460 lung): > 50 µM | GI50 (NCI-H522 lung): > 50 µM | TGI (NCI-H522 lung): > 50 µM | GI50 (NCI/ADR-RES ovarian): > 50 µM | TGI (NCI/ADR-RES ovarian): > 50 µM | GI50 (OVCAR-3 ovarian): > 50 µM | TGI (OVCAR-3 ovarian): > 50 µM | GI50 (OVCAR-4 ovarian): > 50 µM | TGI (OVCAR-4 ovarian): > 50 µM | GI50 (OVCAR-5 ovarian): > 50 µM | TGI (OVCAR-5 ovarian): > 50 µM | GI50 (OVCAR-8 ovarian): > 50 µM | TGI (OVCAR-8 ovarian): > 50 µM | GI50 (PC-3 prostate): > 50 µM | TGI (PC-3 prostate): > 50 µM | GI50 (RPMI-8226 leukemia): > 50 µM | TGI (RPMI-8226 leukemia): > 50 µM | GI50 (RXF 393 renal): > 50 µM | TGI (RXF 393 renal): > 50 µM | GI50 (SF-268 CNS): > 50 µM | TGI (SF-268 CNS): > 50 µM | GI50 (SF-539 CNS): > 50 µM | TGI (SF-539 CNS): > 50 µM | GI50 (SK-MEL-2 melanoma): > 50 µM | TGI (SK-MEL-2 melanoma): > 50 µM | GI50 (SK-MEL-28 melanoma): > 50 µM | TGI (SK-MEL-28 melanoma): > 50 µM | GI50 (SK-MEL-5 melanoma): > 50 µM | TGI (SK-MEL-5 melanoma): > 50 µM | GI50 (SK-OV-3 ovarian): > 50 µM | TGI (SK-OV-3 ovarian): > 50 µM | GI50 (SN12C renal): > 50 µM | TGI (SN12C renal): > 50 µM | GI50 (SNB-19 CNS): > 50 µM | TGI (SNB-19 CNS): > 50 µM | GI50 (SNB-75 CNS): > 50 µM | TGI (SNB-75 CNS): > 50 µM | GI50 (SW-620 colon): > 50 µM | TGI (SW-620 colon): > 50 µM | GI50 (T-47D breast): > 50 µM | TGI (T-47D breast): > 50 µM | GI50 (TK-10 renal): > 50 µM | TGI (TK-10 renal): > 50 µM | GI50 (U251 CNS): > 50 µM | TGI (U251 CNS): > 50 µM | GI50 (UACC-257 melanoma): > 50 µM | TGI (UACC-257 melanoma): > 50 µM | GI50 (UACC-62 melanoma): > 50 µM | TGI (UACC-62 melanoma): > 50 µM | GI50 (UO-31 renal): > 50 µM | TGI (UO-31 renal): > 50 µM
